From ChEMBL document CHEMBL1139221, “2-(4-Chlorobenzyl)-3-hydroxy-7,8,9,10-tetrahydrobenzo[H]quinoline-4-carboxylic acid (PSI-697): identification of a clinical candidate from the quinoline salicylic acid series of P-selectin antagonists” (J Med Chem, 2007) come the findings set out here.

In the assay the target is T1, P-selectin (Homo sapiens, UniProt P16109).
T1 sequence (P16109 whole entry): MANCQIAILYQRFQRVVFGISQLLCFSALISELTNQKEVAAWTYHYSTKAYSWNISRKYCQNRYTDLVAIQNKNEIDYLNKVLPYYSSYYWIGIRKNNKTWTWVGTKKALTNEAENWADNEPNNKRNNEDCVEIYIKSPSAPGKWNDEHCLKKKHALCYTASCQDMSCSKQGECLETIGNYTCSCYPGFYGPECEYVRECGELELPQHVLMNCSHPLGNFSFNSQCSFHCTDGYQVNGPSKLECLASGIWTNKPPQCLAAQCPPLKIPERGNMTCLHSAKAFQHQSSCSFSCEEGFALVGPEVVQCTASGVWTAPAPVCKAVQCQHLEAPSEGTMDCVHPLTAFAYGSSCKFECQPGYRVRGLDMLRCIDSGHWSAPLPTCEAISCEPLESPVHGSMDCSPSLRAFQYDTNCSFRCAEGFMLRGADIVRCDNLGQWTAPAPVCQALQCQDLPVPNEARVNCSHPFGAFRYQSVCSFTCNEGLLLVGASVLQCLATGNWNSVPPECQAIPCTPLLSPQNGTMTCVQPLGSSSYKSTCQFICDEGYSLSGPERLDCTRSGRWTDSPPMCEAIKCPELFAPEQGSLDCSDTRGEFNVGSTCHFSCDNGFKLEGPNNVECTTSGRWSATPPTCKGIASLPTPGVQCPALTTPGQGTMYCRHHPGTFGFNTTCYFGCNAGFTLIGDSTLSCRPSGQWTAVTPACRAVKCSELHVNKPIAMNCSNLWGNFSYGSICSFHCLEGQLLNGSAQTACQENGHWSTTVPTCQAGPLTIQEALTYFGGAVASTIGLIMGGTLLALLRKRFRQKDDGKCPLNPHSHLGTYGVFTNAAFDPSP
Put plainly: Inhibition of P-Selectin by Biacore assay.
As to `CC(C)S(=O)(=O)N1CCc2ccc3c(C(=O)O)c(O)c(Cc4ccc(Cl)cc4)nc3c2C1`, the IC50 (as a rule, the concentration needed to halve the response being measured) was 500 µM. In the case of `O=C(O)c1c(O)c(-c2ccccc2)nc2c3c(ccc12)CCCC3`, the IC50 amounted to 550 µM. The IC50 values of the last two molecules are within 1.5-fold of each other. Regarding `O=C(O)c1c(O)c(Cc2ccc(Cl)cc2)nc2c(-c3ccsc3)cccc12`, inhibition was half-maximal at 225 µM (IC50).

Molecule `O=C(O)c1c(O)c(Cc2ccc(Cl)cc2)nc2c(-c3ccoc3)cccc12` returned an IC50 of 150 µM. Regarding `O=C(O)c1c(O)c(Cc2ccc(Cl)cc2)nc2c(Cl)cccc12`, the IC50 turned out to be 715 µM. `O=C(O)c1c(O)c(Cc2c[nH]c3ccc(Br)cc23)nc2c3c(ccc12)CCCC3`: the IC50 was 175 µM.

For the molecule `COC(=O)Oc1c(Cc2ccc(Cl)cc2)nc2c3c(ccc2c1C(=O)O)CCCC3`, the IC50 was determined as 400 µM.

For `O=C(O)c1c(O)c(Cc2csc3ccccc23)nc2c3c(ccc12)CCCC3`, 100 µM corresponded to half-maximal inhibition (IC50). `O=C(O)c1c(O)c(Cc2ccc(Cl)cc2)nc2ccc(Br)cc12` yielded an IC50 of 650 µM. `O=C(O)c1c(O)c(Cc2ccc(OC(F)(F)F)cc2)nc2c3c(ccc12)CCCC3` yielded an IC50 of 610 µM. `COc1ccc2[nH]cc(Cc3nc4c5c(ccc4c(C(=O)O)c3O)CCCC5)c2c1` gave a half-inhibitory concentration (IC50) of 400 µM. Take `O=C(O)c1c(O)c(Cc2cccs2)nc2c3c(ccc12)CCCC3`: the IC50 came out at 413 µM. The IC50 values of the last two molecules are within 1.5-fold of each other.

Molecule `CC(C)c1cccc2c(C(=O)O)c(O)c(Cc3ccc(Cl)cc3)nc12` displayed a half-maximal inhibitory concentration (IC50) of 225 µM. Molecule `O=C(O)c1c(O)c(Cc2ccc(Cl)cc2)nc2c(OC(F)(F)F)cccc12` showed a half-maximal inhibitory concentration (IC50) of 550 µM.

Take `CCc1cccc2c(C(=O)O)c(O)c(Cc3ccc(Cl)cc3)nc12`: it took 250 µM to reach half-maximal inhibition (IC50). `O=C(O)c1c(O)c(Nc2ccc(Cl)cc2)nc2c(C(F)(F)F)cccc12` displayed an IC50 of 125 µM. For `Cc1cccc2c(C(=O)O)c(O)c(Cc3ccc(Cl)cc3)nc12`, inhibition was half-maximal at 1000 µM (IC50). Molecule `O=C(Oc1c(Cc2ccc(Cl)cc2)nc2c3c(ccc2c1C(=O)O)CCCC3)c1ccccc1` gave an IC50 of 190 µM. Against the preceding molecule, the IC50 is about 5.3-fold lower. The molecule `O=C(O)c1c(O)c(Cc2ccc(Cl)cc2)nc2cc(Cl)ccc12` displayed an IC50 of 900 µM. Compared with the last molecule, the IC50 is about 4.7-fold higher. In the case of `O=C(O)c1c(O)c(Cc2ccsc2)nc2c3c(ccc12)CCCC3` it was 475 µM; in that of `CC(C)COC(=O)Oc1c(Cc2ccc(Cl)cc2)nc2c3c(ccc2c1C(=O)O)CCCC3`, 250 µM. `CCC(C)c1cccc2c(C(=O)O)c(O)c(Cc3ccc(Cl)cc3)nc12` (configuration not stated) showed an IC50 of 300 µM. This IC50 and that of the molecule before are within 1.5-fold of each other. Molecule `NC(=O)c1ccc(Cc2nc3c4c(ccc3c(C(=O)O)c2O)CCCC4)cc1` came in with an IC50 of 1250 µM. Turning to `Cc1ccc2c(C(=O)O)c(O)c(-c3ccccc3)nc2c1C`, the IC50 is 1500 µM. As for `O=C(O)c1c(OCc2ccccc2)c(Cc2ccc(Cl)cc2)nc2c3c(ccc12)CCCC3`, the IC50 amounted to 390 µM.

Molecule `O=C(O)c1c(O)c(Cc2ccc(Cl)cc2)nc2c(-c3ccccc3)cccc12` displayed an IC50 of 200 µM.

On to `O=C(O)c1c(O)c(Cc2ccc(Cl)cc2)nc2c(C(F)(F)F)cccc12`, for which the IC50 was 325 µM. For the molecule `O=C(O)c1c(O)c(-c2ccccc2)nc2ccccc12` [OXYCINCHOPHEN], the IC50 amounted to 6500 µM. On to `O=C(O)c1c(O)c(Cc2ccc(Cl)cc2)nc2c(Br)cccc12`, for which inhibition was half-maximal at 425 µM (IC50). In turn, `CC(=O)Oc1c(Cc2ccc(Cl)cc2)nc2c3c(ccc2c1C(=O)O)CCCC3` had an IC50 of 545 µM. As for `O=C(O)c1c(O)c(Cc2c[nH]c3ccccc23)nc2c(-c3ccsc3)cccc12`, the IC50 was 380 µM. The IC50 values of the last two molecules are within 1.5-fold of each other. The molecule `O=C(O)c1c(OC(=O)C2CCCCC2)c(Cc2ccc(Cl)cc2)nc2c3c(ccc12)CCCC3` returned a concentration for half-maximal inhibition (IC50) of 175 µM. As for `Cc1[nH]c2ccccc2c1Cc1nc2c3c(ccc2c(C(=O)O)c1O)CCCC3`, the IC50 was found to be 270 µM. Regarding `Cc1ccc(-c2nc3c4c(ccc3c(C(=O)O)c2O)CCCC4)s1`, the IC50 is 200 µM. The IC50 values of the last two molecules are within 1.5-fold of each other. Molecule `O=C(O)c1c(O)c(Cc2ccc(Cl)cc2)nc2c3c(ccc12)CCC3` returned a half-maximal inhibitory concentration (IC50) of 580 µM.

On to `CS(=O)(=O)N1CCc2ccc3c(C(=O)O)c(O)c(Cc4ccc(Cl)cc4)nc3c2C1`, for which the IC50 was determined as 625 µM. The value for `O=C(O)c1c(O)c(CCc2ccccc2)nc2c3c(ccc12)CCCC3` was 450 µM.
